Experimental data published in patent US9518050B2, “Cyclohexyl and quinuclidinyl carbamate derivatives having β2 adrenergic agonist and M3 muscarinic antagonist activity” (priority 2012, dated 2016).
Read-outs that look alike come from different tables or passages of the source.

What was measured:
[1] = target: T1, human muscarinic M3 receptor (Homo sapiens, UniProt P20309); test: Human muscarinic M3 receptor binding assay ([3H]-NMS, CHO-K1 cell membranes)
T1 construct: purchased Perkin Elmer; host or cells: CHO-K1 cells (membranes)
Method: Test 2: Human Muscarinic M1, M2, M3, M4 and M5 Receptors Binding Assays
The study of binding to human muscarinic M1, M2, M3, M4 and M5 receptors was performed using commercial membranes (Perkin Elmer) prepared from CHO-K1 cells. Radioligand binding experiments were conducted in 96 polypropylene well plates in a total volume of 200 μl. All reagents were dissolved in assay binding buffer (PBS with calcium and magnesium, SIGMA), except compounds that were dissolved in DMSO 100%. Non-specific binding (NSB) was measured in the presence of 1 μM atropine. [3H]-NMS was used as the radioligand at a concentration of 1 nM for M2, M3 and M5 and 0.3 nM for M1 and M4. [3H]-NMS and antagonists were incubated with membranes that express human muscarinic receptors M1, M2, M3, M4 and M5 at concentrations of 8.1, 10, 4.9, 4.5 and 4.9 μg/well, respectively.
After an incubation period of two hours with gentle shaking, 150 μl of the reaction mix were transferred to 96 GF/C filter plates (Millipore), previously treated with wash buffer (Tris 50 mM; NaCl 100 mM; pH:7.4), containing 0.05% PEI (Sigma) during one hour. Bound and free [3H]-NMS were separated by rapid vacuum filtration in a manifold from Millipore and washed four times with ice cold wash buffer. After drying 30 min, 30 μl of OPTIPHASE Supermix were added to each well and radioactivity quantified using a Microbeta microplate scintillation counter.
The affinity of each test compound to the receptors was determined by using ten different concentrations ran in duplicate. IC50s were calculated using Activity Base software from IDBS and the four parameters-log equation.

[2] = target: T2, human adrenergic beta2 receptor (Homo sapiens, UniProt P07550); test: Human adrenergic β2 receptor binding assay (3H-CGP12177, Sf9 cell membranes)
T2 construct: purchased Perkin Elmer; host or cells: Sf9 cells (overexpressed; membranes)
Method: Typically said beta2-adrenergic binding assay comprises: • a) providing a membrane suspension comprising Sf9 cells in an assay buffer • b) incubating with 3H-CGP12177 in plates previously treated with assay buffer containing a coating agent • c) measuring binding of test compound in the presence of propanolol • d) maintaining incubation • e) terminating the binding reactions • f) determining the affinity of the test compound for the receptor by repeating steps a) to e) using multiple different test compound concentrations. • g) calculating an IC50 using the four parameters-log equation.
Test 1: Human Adrenergic β1 and β2 Receptor Binding Assays
The study of binding to human adrenergic beta1 and beta2 receptors was performed using commercial membranes prepared from Sf9 cells where they are overexpressed (Perkin Elmer). The membrane suspensions (16 μg/well for beta1 and 5 μg/well for beta2) in assay buffer (75 mM Tris/HCl with 12.5 mM MgCl2 and 2 mM EDTA pH=7.4) were incubated with 0.14 or 0.6 nM of 3H-CGP12177 (Amersham) for beta 1 and beta 2 receptors respectively in a final volume of 250 μl, in GFC Multiscreen 96 well plates (Millipore) previously treated with assay buffer containing 0.3% PEI (Sigma). Non specific binding was measured in the presence of 1 μM propanolol. Incubation was maintained for 60 minutes at room temperature and with gentle shaking. The binding reactions were terminated by filtration and washing with 2.5 volumes of Tris/HCl 50 mM pH=7.4. The affinity of each test compound to the receptor was determined by using ten different concentrations ran in duplicate. IC50s were calculated using Activity Base software from IDBS and the four parameters-log equation.

[3] = 1 nM [3H]-NMS, CHO-K1 membranes 4.9 μg/well, two hours incubation, read-out: Binding, IC50, nM M3
[4] = 0.6 nM 3H-CGP12177, Sf9 membranes 5 μg/well, 60 min room temperature, read-out: Binding, IC50, nM β2

T1 sequence (P20309 whole entry): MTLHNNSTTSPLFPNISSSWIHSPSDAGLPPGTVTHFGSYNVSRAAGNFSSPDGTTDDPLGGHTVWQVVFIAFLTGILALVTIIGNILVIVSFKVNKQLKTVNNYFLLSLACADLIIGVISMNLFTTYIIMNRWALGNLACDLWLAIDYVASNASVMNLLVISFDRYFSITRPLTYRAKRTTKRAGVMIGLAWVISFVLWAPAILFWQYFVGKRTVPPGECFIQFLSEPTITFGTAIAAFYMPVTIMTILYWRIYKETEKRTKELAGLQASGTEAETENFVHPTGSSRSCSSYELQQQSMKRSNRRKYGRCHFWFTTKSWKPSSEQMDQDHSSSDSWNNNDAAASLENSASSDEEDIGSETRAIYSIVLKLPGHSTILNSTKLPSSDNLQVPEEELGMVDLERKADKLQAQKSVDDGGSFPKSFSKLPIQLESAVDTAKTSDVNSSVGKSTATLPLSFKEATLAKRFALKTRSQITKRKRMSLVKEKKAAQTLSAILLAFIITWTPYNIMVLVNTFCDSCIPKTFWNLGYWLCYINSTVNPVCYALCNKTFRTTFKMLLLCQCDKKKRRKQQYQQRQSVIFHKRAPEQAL

Compound	IC50 [1, 3]	IC50 [2, 4]	IC50 [1]	IC50 [2]
trans-4-aminocyclohexyl(5-{4-[6-({[(2R)-2-hydroxy-2-(8-hydroxy-2-oxo-1,2-dihydroquinolin-5-yl)ethyl]amino}methyl)-2-oxo-1,3-benzoxazol-3(2H)-yl]butyl}biphenyl-2-yl)carbamate dihydrochloride [Example 34]	0.84 nM	14 nM		
O=C(Nc1cc(CCCCn2nc3ccc(CNC[C@H](O)c4ccc(O)c5[nH]c(=O)ccc45)cc3n2)ccc1-c1ccccc1)O[C@H]1CN2CCC1CC2 [Example 19, (3R)-1-azabicyclo[2.2.2]oct-3-yl(4-{4-[5-({[(2R)-2-hydroxy-2-(8-hydroxy-2-oxo-1,2-dihydroquinolin-5-yl)ethyl]amino}methyl)-2H-1,2,3-benzotriazol-2-yl]butyl}biphenyl-2-yl)carbamate]			0.19 nM	6.6 nM
(3R)-1-azabicyclo[2.2.2]oct-3-yl(4-{4-[3-({[(2R)-2-hydroxy-2-(8-hydroxy-2-oxo-1,2-dihydroquinolin-5-yl)ethyl]amino}methyl)phenoxy]butyl}biphenyl-2-yl)carbamate dihydrofluoride [Example 9]	0.68 nM	47 nM		
O=C(Nc1ccc(CCCCn2c(=O)oc3cc(CNC[C@H](O)c4ccc(O)c5[nH]c(=O)ccc45)ccc32)cc1-c1ccccc1)O[C@H]1CN2CCC1CC2 [Example 22, (3R)-1-azabicyclo[2.2.2]oct-3-yl(5-{4-[6-({[(2R)-2-hydroxy-2-(8-hydroxy-2-oxo-1,2-dihydroquinolin-5-yl)ethyl]amino}methyl)-2-oxo-1,3-benzoxazol-3(2H)-yl]butyl}biphenyl-2-yl)carbamate]			1 nM	8.5 nM
(3R)-1-azabicyclo[2.2.2]oct-3-yl(4-{4-[6-({[(2R)-2-hydroxy-2-(8-hydroxy-2-oxo-1,2-dihydroquinolin-5-yl)ethyl]amino}methyl)-2-oxo-1,3-benzothiazol-3(2H)-yl]butyl}biphenyl-2-yl)carbamate dihydrofluoride [Example 16]	0.65 nM	12 nM		
trans-4-aminocyclohexyl[4-(4-{[trans-4-({[(2R)-2-hydroxy-2-(8-hydroxy-2-oxo-1,2-dihydroquinolin-5-yl)ethyl]amino}methyl)cyclohexyl]amino}-4-oxobutyl)biphenyl-2-yl]carbamate dihydrochloride [Example 44]	1.2 nM	6.3 nM		
(3R)-1-azabicyclo[2.2.2]oct-3-yl(4-{4-[5-({[(2R)-2-hydroxy-2-(8-hydroxy-2-oxo-1,2-dihydroquinolin-5-yl)ethyl]amino}methyl)-1H-indol-1-yl]butyl}biphenyl-2-yl)carbamate dihydrofluoride [Example 15]	0.32 nM	15 nM		
COc1cc(C(=O)NCCCc2ccc(-c3ccccc3)c(NC(=O)O[C@H]3CC[C@H](N)CC3)c2)c(Cl)cc1CNC[C@H](O)c1ccc(O)c2[nH]c(=O)ccc12 (relative stereo) [Example 52, trans-4-aminocyclohexyl[4-(3-{[2-chloro-4-({[(2R)-2-hydroxy-2-(8-hydroxy-2-oxo-1,2-dihydroquinolin-5-yl)ethyl]amino}methyl)-5-methoxybenzoyl]amino}propyl)biphenyl-2-yl]carbamate]	1.5 nM	8.2 nM		
(3R)-1-azabicyclo[2.2.2]oct-3-yl(4-{4-[6-({[(2R)-2-hydroxy-2-(5-hydroxy-3-oxo-3,4-dihydro-2H-1,4-benzoxazin-8-yl)ethyl]amino}methyl)-2-oxo-1,3-benzoxazol-3(2H)-yl]butyl}biphenyl-2-yl)carbamate dihydrofluoride [Example 25]	0.14 nM	1.5 nM		
N[C@H]1CC[C@H](OC(=O)Nc2cc(CCCC(=O)N[C@H]3CC[C@H](CNC[C@H](O)c4ccc(O)c5[nH]c(=O)ccc45)CC3)ccc2-c2ccccc2)CC1 (relative stereo) [Example 58, trans-4-aminocyclohexyl[4-(4-{[trans-4-({[(2R)-2-hydroxy-2-(8-hydroxy-2-oxo-1,2-dihydroquinolin-5-yl)ethyl]amino}methyl)cyclohexyl]amino}-4-oxobutyl)biphenyl-2-yl]carbamate]	1.4 nM	8.4 nM		
trans-4-[methyl(3-phenylpropyl)amino]cyclohexyl[4-(4-{[4-({[(2R)-2-hydroxy-2-(8-hydroxy-2-oxo-1,2-dihydroquinolin-5-yl)ethyl]amino}methyl)phenyl]amino}-4-oxobutyl)biphenyl-2-yl]carbamate dihydrofluoride [Example 40]	0.78 nM	2 nM		
